Test results as given in US9090662B2, “Dithioamine reducing agents” (WISCONSIN ALUMNI RESEARCH FOUNDATION, priority 2012, dated 2015).
Like-named read-outs stand apart in the source and are kept apart here. Marks after values point to notes of the source that are not given here.

Assays:
[1] = Determination of thiol pKa values (pH-titration monitored by absorbance at 238 nm); type: physicochemical; settings: for pKa: potassium phosphate buffer, mean ± SE from this work
Experimental: The thiol pKa values of DTBA were determined by measuring its absorbance at 238 nm in solutions of different pH. The deprotonated thiolate absorbs much more strongly at 238 nm than does its protonated counterpart. [15a] This attribute was exploited for determining thiol pKa values as described previously. [15b] Buffered stock solutions of K3PO4, K2HPO4, and KH2PO4 (100 mM) were degassed and flushed with N2(g) for 1 h immediately prior to use. A stock solution of DTBA (1.5 mM) in KH2PO4 was then prepared. Various combinations of the buffered stock solutions were combined in duplicate to give two identical sets of 1-mL solutions of pH 5.5-11. KH2PO4 stock solution (70 μL) was added to each replicate pair of solutions and used to set the A238 to zero. Dithiol solution (70 μL) was then added to its complimentary 1-mL vial, and its absorbance at 238 nm was recorded. The pH of the solution was then immediately measured using a Beckman pH meter, which had been calibrated prior to use with pH 7 and pH 10 standard solutions from Fisher Scientific. This process was repeated multiple times to obtain a plot of A238 vs pH (FIG. 3).
pKa values were determined by fitting the data in FIG. 3 to eq 1, which is derived from Beer's law and the definition of the acid dissociation constant. [15b] In eq 1, CT is total thiol concentration, εSH^SH is the extinction coefficient of the doubly protonated form, εSH^S− is the extinction coefficient of the singly protonated form, and εS−^S−is the extinction coefficient of the unprotonated form. Both pKa values and extinction coefficients were determined from the curve fit.

[2] = Kinetic studies on the reduction of oxidized βME; type: physicochemical
Experimental: The observed second-order rate constant (kobs) for a thiol-disulfide interchange reaction was determined by adapting a procedure described previously. [2e] When the disulfide is oxidized βME, a 50 mM stock solution of potassium phosphate buffer was degassed and purged with N2(g) for 30 min immediately prior to use. […] Phosphate buffer (2.5 mL) was added to the round-bottom flask containing the dithiol. Oxidized βME stock solution (2.5 mL) was then added, and the reaction mixture was stirred at room temperature under N2(g) for 1 min. The reaction mixture was quenched by the addition of 0.10 mL of 3 N HCl. The reaction mixture was passed through a 4.5-μm filter, and 100 μL of the reaction mixture was analyzed immediately by HPLC using a Varian C18 reverse-phase column. The column was eluted at 1.0 mL/min with water (5.0 mL), followed by a linear gradient (0-40% v/v) of acetonitrile/water over 40 min. The extent of reduction was determined by integrating the newly formed peak corresponding to βME at 205 nm (retention time: 8 min). This process was repeated for reaction times of 2 and 4 min. Calibration curves were generated and found to be linear over the used concentration range. The amount of residual oxidized βME was calculated, and second-order rate constants were calculated from a linear fit of the data in FIG. 1A (that is, kobs=[(1/cfinal)−(1/cinitial)]/t). […] Rate constants were the mean±SE from three experiments.

[3] = Kinetic studies on the reduction of oxidized L-glutathione; type: physicochemical; settings: for kobs, second-order rate constant, reduction of oxidized L-glutathione: pH 7.0, 50 mM potassium phosphate buffer, mean ± SE from three experiments
Experimental: An experiment similar to that in Example 7 was conducted with disulfide=oxidized L-glutathione. Reactions were quenched at various time points (2, 4, 6, and 8 min) and 100 μL was analyzed by HPLC (1.0 mL/min with water (5.0 mL) in 0.1% v/v TFA, followed by a linear gradient (0-40% v/v) of acetonitrile in 0.1% v/v TFA over 40 min). The extent of reduction was determined by integrating the newly formed L-glutathione reduced peak at 220 nm (retention time of 7 min). Second-order rate constants were calculated from a linear fit of the data in FIG. 1B (that is, kobs=[(1/cfinal)−(1/cinitial)]/t). Rate constants were the mean±SE from three experiments.

papaya latex papain = target: T1, papaya latex papain (Carica papaya, UniProt P00784); experiment: Kinetic studies on the reactivation of papain (reduction of mixed disulfide at Cys25); type: biochemical; settings: 0.10 M imidazole-HCl buffer, pH 7.0, 2 mM EDTA; for kobs, second-order rate constant, reactivation of papain: mean ± SE from three experiments
T1 construct: Cys25 in the active site of papaya latex papain; from tissue; host or cells: papaya latex
T1 sequence (P00784 134-345): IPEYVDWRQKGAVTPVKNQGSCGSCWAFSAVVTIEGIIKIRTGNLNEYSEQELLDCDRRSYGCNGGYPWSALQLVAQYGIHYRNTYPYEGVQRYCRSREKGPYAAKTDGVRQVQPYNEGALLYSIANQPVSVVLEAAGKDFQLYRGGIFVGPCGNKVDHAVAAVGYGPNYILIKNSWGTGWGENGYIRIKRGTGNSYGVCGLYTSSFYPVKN
Experimental: Cys25 in the active site of papaya latex papain was oxidized as a mixed disulfide by a procedure described previously.[25] Briefly, a stock solution of methyl methanethiosulfonate (3.5 mM) was prepared by dilution of 5 μL of methyl methanethiosulfonate with 15 mL of 0.10 M potassium phosphate buffer, pH 7.0, containing EDTA (2 mM). KCl (0.011 g, 0.15 mmol) was added to 1.5 mL of this stock solution. The solution was deoxygenated by bubbling N2(g) through it for 15 min. Next, papain (5 mg, 150 units) was added, and the resulting solution was incubated at room temperature under N2(g) for 12 h. Excess methyl methanethiosulfonate was removed by size-exclusion chromatography using a Sephadex G-25 column. The final concentration of papain was determined by A280 using ε280=5.60×10^4 M^−1cm^−1. A solution (0.26 mL) of the chromatographed protein was diluted with 4.94 mL of deoxygenated aqueous buffer (0.10 M imidazole-HCl buffer, pH 7.0, containing 2 mM EDTA). Enzyme solution (1.25 mL) was then added to four separate vials. […] The rate of change in absorbance at 410 nm was recorded at 25° C. A unit of protein is defined by the amount of enzyme required to produce 1 μmol/min of 4-nitroaniline. Using an extinction coefficient for 4-nitroaniline of ε=8,800 M^−1cm^−1 at 410 nm, [27] the number of units of active papain in solution at each time point was calculated. […] Enzymatic activity (%) at particular times was calculated by dividing the number of active units of enzyme by the possible number of units in the solution, and was plotted as in FIG. 2A. To determine the value of the second-order rate constant kobs for the reducing agents, the second-order rate equation (eq 4) was transformed into eq 5, which was fitted to the data with the program PRISM 5.0. […] Values of kobs were the mean±SE from three experiments.

[4] = target: T2, rabbit muscle creatine kinase (Oryctolagus cuniculus, UniProt P00563); experiment: Kinetic studies on the reactivation of creatine kinase (reduction of mixed disulfide at Cys283); type: biochemical; settings: creatine kinase-Cys283-S—S-glutathione; mean ± SE from three experiments
T2 construct: Cys283 in the active site of rabbit muscle creatine kinase; from tissue; host or cells: rabbit muscle
T2 sequence (P00563 whole entry): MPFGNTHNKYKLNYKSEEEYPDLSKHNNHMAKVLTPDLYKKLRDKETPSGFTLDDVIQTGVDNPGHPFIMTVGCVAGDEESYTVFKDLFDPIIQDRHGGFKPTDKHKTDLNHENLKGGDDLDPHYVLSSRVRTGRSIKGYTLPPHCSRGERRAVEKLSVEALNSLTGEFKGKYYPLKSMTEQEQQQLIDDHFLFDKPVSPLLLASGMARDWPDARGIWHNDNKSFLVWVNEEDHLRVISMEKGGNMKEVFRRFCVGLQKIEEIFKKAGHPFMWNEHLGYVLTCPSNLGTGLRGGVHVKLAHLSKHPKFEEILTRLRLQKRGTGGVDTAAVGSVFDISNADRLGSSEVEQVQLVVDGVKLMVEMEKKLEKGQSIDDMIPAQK
Experimental: Cys283 in the active site of rabbit muscle creatine kinase was oxidized as a mixed disulfide by a procedure described previously, [28] but with a slight modification in the measurement of active enzyme. A unit of enzyme was defined as the amount required to produce 1 μmol/min of NADPH. Using an extinction coefficient for NADPH of ε=6.22 mM^−cm^−1 at 340 nm, the units of active creatine kinase in solution at a particular time were calculated. […] Enzymatic activity (%) at particular times was calculated by dividing the number of active units of enzyme by the possible number of units in the solution, and was plotted as in FIG. 2B. Values of the second-order rate constant k were determined by using eq 4 as described in Example 9, and were the mean±SE from three experiments.

[5] = Separation using DOWEX 50WX4-400 ion-exchange resin (Ellman's assay of filtrate); type: physicochemical; settings: 0.10 M sodium phosphate buffer, pH 8.0, 1 mM EDTA
Experimental: A reaction buffer (0.10 M sodium phosphate, pH 8.0, 1 mM EDTA) was prepared. Ellman's reagent solution was prepared by adding Ellman's reagent (4 mg) to 1 mL of the reaction buffer. Next, to 25 mL of reaction buffer (0.10 M sodium phosphate, pH 8.0, 1 mM EDTA) was added DTBA (2.2 mg, 1.27×10^−5 mol) and 1.7 g of DOWEX 50WX4-400 ion-exchange resin. The mixture was swirled for several minutes and filtered through a fritted syringe. Ellman's reagent solution (50 μL) was added to two separate vials containing 2.5 mL of reaction buffer. As a blank, 250 μL of reaction buffer was added to one of the vials, and the absorbance at 412 nm was set to zero. Filtrate (250 μL) was then added to the other vial and its absorbance was recorded. With A412=0.012 and using an extinction coefficient of ε=14,150 M^−1cm^−1, [24b, 24c] it was calculated that >99% of DTBA was retained by the resin and thus removed from solution. […] See Example 3 for a more detailed explanation of similar calculations using Ellman's assay.

[6] = value from the literature, cited from earlier work
[7] = Reduction potential (E°′) from HPLC redox equilibrium with oxidized DTT; type: physicochemical; settings: for Keq for the reaction with oxidized DTT: 50 mM potassium phosphate buffer pH 7, 24 h, room temperature
Experimental: [2g] Data were obtained by a procedure similar to that described previously. [2g, 15b] […] The flask was then flushed with N2(g) for 30 min.
A 50 mM stock solution of potassium phosphate buffer (pH 7) was degassed and purged with N2(g) for 30 min immediately prior to use. Buffer (15 mL) was added, and the reaction mixture was stirred under N2(g) for 24 h at room temperature. The reaction mixture was then quenched by the addition of 3 N HCl (1:100 dilution). The reaction mixture was passed through a 4.5-μm filter, and 100 μL of the reaction mixture was analyzed immediately by HPLC using a Waters system equipped with a Waters 996 photodiode array detector, Empower 2 software, and a Varian C18 reverse-phase column. The column was eluted at 1.0 mL/min with water (5.0 mL), followed by a linear gradient (0-40% v/v) of acetonitrile/water over 40 min. Compounds were detected by their absorbance at 205 nm. Reduced and oxidized DTBA are highly polar and elute from the column immediately (as confirmed by LC-MS). Two peaks, however, were clearly visible in the chromatogram FIG. 4). […] Calibration curves were generated and found to be linear over the used concentration range.
The procedure described in Example 5 was also performed with BMS. […] A previously reported reduction potential for BMS was E°′=−0.31 V. [2g]

[8] = value from the literature, cited from earlier work; remark: listed apart in the source
[9] = from ref. 13; cited from earlier work
Solubility in water = type: physicochemical; settings: HCl salt
[10] = pH 5.5, 50 mM potassium phosphate buffer
[11] = pH 7.0, 50 mM potassium phosphate buffer, mean ± SE from three experiments

Row | SMILES | kobs, second-order rate constant, reduction of oxidized βME [2, 10] [M⁻¹ s⁻¹] | kobs, second-order rate constant, reduction of oxidized βME [2, 11] [M⁻¹ s⁻¹] | kobs, second-order rate constant, reduction of oxidized L-glutathione [3] [M⁻¹ s⁻¹] | kobs, second-order rate constant, reactivation of papain (papaya latex papain) [M⁻¹ s⁻¹] | kobs, second-order rate constant, reactivation of creatine kinase [4] [M⁻¹ s⁻¹] | Fraction removed from solution (retained) by Dowex 50 cation-exchange resin [5] [%] | Keq for the reaction with oxidized DTT [7] | Disulfide Reduction Potential (E°′) [6] | Thiol pKa ([8]; lower (first) thiol pKa) | also measured
1 | O[C@H](CS)[C@H](O)CS (racemic) [DTT, (2S,3S)-1,4-dimercaptobutane-2,3-diol] | 0.0021 ± 0.0002 | 0.084 ± 0.004 | 0.16 ± 0.02 | 91.3 ± 9.4 | 17.5 ± 1.6 | < 1 | – | – | – | Residues in the reactive thiolate form ([1]; at pH 7): less than 1%; Thiol groups protonated (unreactive) ([1]; at pH 7, from lower thiol pKa […]): greater than 99%; Disulfide Reduction Potential (E°′) ([6]; listed as DTT (racemate)): −0.327 V^e
2 | O=S(=O)(CCS)CCS [BMS, Bis(2-mercaptoethyl)sulfone] | – | – | – | – | – | – | 0.0517±0.0194 | −0.31 V | – | Disulfide Reduction Potential (E°′) ([7]; 50 mM potassium phosphate buffer pH 7, equilibrium with oxidized DTT, assuming E°′=−0.327 V for DTT, mean ± SE from seven experiments): −0.291±0.002 V; Thiol pKa ([8]; second (higher) thiol pKa): 9.0±0.2
3 | NCCS [Cysteamine] | – | – | – | – | – | – | – | −0.203 V^b | 8.37^c | Amino pKa [9]: 10.44
4 | N[C@H](CS)CCS [DTBA, (2S)-2-amino-1,4-dimercaptobutane] | 0.0093 ± 0.0003 | 0.29 ± 0.02 | 0.83 ± 0.04 | 1342 ± 148 | 15.1 ± 1.0 | > 99 | 0.469±0.131 | – | – | pKa ([1]; lower (first) thiol pKa, 0.10 M potassium phosphate buffer): 8.2 ± 0.2; pKa ([1]; second (higher) thiol pKa, in parentheses in Table 1): 9.3 ± 0.1; kobs^DTBA/kobs^DTT, reduction of oxidized βME (fold faster than DTT) ([2]; pH 5.5): 4.4; kobs^DTBA/kobs^DTT, reduction of oxidized βME (fold faster than DTT) ([2]; pH 7.0): 3.5; kobs^DTBA/kobs^DTT, reduction of oxidized L-glutathione (fold faster than DTT) ([3]; pH 7.0): 5.2; kobs^DTBA/kobs^DTT, reduction of papain mixed disulfide (fold faster than DTT) (papaya latex papain): 14; Solubility in water (Solubility in water): high solubility in water
5 | OCCS [βME, β-mercaptoethanol] | – | – | – | – | – | – | – | −0.260 V^b | 9.61^a | –
